Data set [1] deals with ERK1/2. Nature of the data set: ERK1/2 activation in dendritic cells. The format is cell-based. The conditions noted are these: low concentration (1 μM). The source says: Total ERK1/2 expression remained unperturbed under all conditions.
For data set [2], the system named is H460 cells. Nature of the data set: Flow cytometry with PI staining (apoptosis rate) after free lipid. The class given is cell-based, human. As to conditions: 10 μM lipid, 3 h. An excerpt:
There was no statistically significant difference between the cytotoxicities of DSGLA and lipid 1.
On the technique in general: A flow cytometer gives signals particle by particle.

The test system of data set [3] is H460 cells. Nature of the data set: Chemosensitization study with cisplatin (MTT assay). The format is cell-based, human. The conditions noted are these: 48 h. As for the experimental part: (§1) The cell viability values shown are the averages of triplicate experiments performed on the same day. […] Data=mean, n=3.
H460 cells (1×10^4 per well) were seeded into 12-well plates. Cells were incubated with different lipids at 10 μM and cisplatin (Sigma-Aldrich, St. Louis, Mo.) at different concentrations in serum-containing medium at 37° C. Cell viability was detected by the MTT assay 48 h later.
(§2) The cytotoxic effects of the three novel lipids at various concentrations were assessed in H460 cells after exposure to lipids 1-3 and DOTAP for 48 h using the MTT assay (FIG. 5A). […] To assess the chemo-sensitization ability of these lipids to anticancer drugs such as cisplatin, H460 cells were exposed to each of these agents for 48 h, alone and in combination with cisplatin.

In data set [4] the test system is B16F10 cells (that stably express luciferase). Nature of the data set: In vitro luciferase gene silencing. The format is cell-based. The conditions noted are these: 24 h, 37° C., lipid as cationic lipid of the LPD formulation, vs DOTAP and DSGLA, AA vs no AA. An excerpt:
We examined the gene silencing effect by siRNA in different compositions. […] Furthermore, the silencing effect in the cells treated with LPD-PEG-AA was much stronger than that of cells treated with LPD-PEG.

The subject of data set [5] is B16F10 melanoma cells. Nature of the data set: Intracellular uptake of fluorescently-labeled siRNA in B16F10 cells. The format is cell-based. The conditions noted are these: 4 h, CY3-siRNA, lipid as cationic lipid of LPD-PEG / LPD-PEG-AA, vs DOTAP, AA vs no AA. As to the method:
FIG. 9 presents fluorescence photographs of B16F10 cells after a 4 h treatment with 3′ CY3-labeled siRNA against an irrelevant target in LPD-PEG or LPD-PEG-AA nanoparticles formulated with the cationic lipid DSAA, DSGLA, or DOTAP.
We post inserted PEGylated lipids onto a LPD formulation, a nonviral vector developed in our lab as a nanocarrier for siRNA delivery, to increase the serum stability. In addition, we also tethered anisamide, a compound that specifically binds to the sigma receptor, to the distal end of PEG as a targeting ligand. […] Furthermore, the fluorescence signal in the cells treated with LPD-PEG-AA was much stronger than that of cells treated with LPD-PEG.

Data set [6] concerns H460 cells. Nature of the data set: Cellular growth inhibition study (MTT assay). As to the method: as §1
H460 cells (1×10^4 per well) were seeded into 12-well plates. Cells were treated with different lipids at various concentrations in serum-containing medium at 37° C. for 72 h. Cell viability was then detected by an MTT assay. Briefly, 100 μL of the MTT solution (15 mg in 50 mL of PBS) was added to each well, and the cells were incubated for 4 h at 37° C. The medium was removed, and the formazan crystals formed in the cells were dissolved in DMSO. Absorbance at 570 nm was measured in an Ultramark Microplate Imaging System. The data are expressed as the percent of viable cells compared to the untreated control cells.
as §2
For orientation: Tetrazolium assays rely on reduction of a dye to a coloured formazan, in cell work by metabolically active cells.

Data set [7] deals with H460 cells. Nature of the data set: In vitro transfection (pCMV-Luc luciferase reporter gene delivery). The class given is cell-based, human. As to conditions: presence of serum, cholesterol co-lipid 1:1, pCMV-Luc, lipid/DNA charge ratios 8:1 to 1:1. Background: In a reporter assay the amount or activity of a reporter protein is the signal.
Experimental: RLU/pgram of protein was plotted against the lipid to DNA (+/−) charge ratios. The transfection efficiencies of the lipids were compared to that of commercially available N-(2,3-dioleoyloxy) propyl)-N,N,N-trimethylammonium chloride (DOTAP) and Lipofectamine™ 2000. The transfection values shown are the average of triplicate experiments performed on the same day.
H460 human large-cell lung carcinoma cells were seeded at a density of 20,000 cells per well in a 96-well plate 18-24 h prior to the transfection. Plasmid DNA (0.3 μg) was complexed with varying amounts of lipids (0.9-7.2 nmol) in plain RPMI medium (total volume of 100 μL) for 20 min. The charge ratios were varied from 1:1 to 8:1 (+/−) over these ranges of the lipids. The complexes were then added to the cells. After 3 h of incubation, 100 μL of RPMI with 20% FBS was added to the cells. The reporter gene activity was estimated after 24 h. The cells were washed twice with phosphate-buffered saline (PBS, 100 μL each) and lysed in 100 μL of lysis buffer (0.1 M Tris-HCl, 2 mM EDTA, 0.5% Triton X100, pH 7.8). Care was taken to ensure complete lysis. The cell lysate was then centrifuged at 14,000 rpm for 5 min. […] The protein concentration within the cellular lysates was quantified with the BSA standards from the Micro BSA™ Protein assay kit as supplied by Pierce Chemical Company (Rockford, Ill.). […]

Where two headings read alike, the source gives them in different places.

Broadly, the IC50 is the concentration at which inhibition is half-maximal. By EC50 is commonly meant the concentration needed to bring the measured effect to its halfway point.

Consider `CCCCCCCC/C=C\CCCCCCCC(=O)OCC(C[N+](C)(C)C)OC(=O)CCCCCCC/C=C\CCCCCCCC.[Cl-]` (stereo not drawn) [DOTAP], for which the ERK1/2 activation result in data set [1] was “increased ERK1/2 activation”. In addition, the “apoptosis rate (flow cytometry with PI staining)” value in data set [2] came out at 4.7±0.5%. Moreover, the “sensitization of cells to cisplatin” value in data set [3] (lipid 10 μM) is on record as “not”.
Take `CCCCCCCCCCCCCCCCCC[N+](C)(CCCCCCCCCCCCCCCCCC)CCNC(=O)[C@@H](N)CCCNC(=N)N` [DSAA, N-methyl-N-(2-(arginoylamino)ethyl)-N,N-Dioctadecyl aminium chloride]: the “silencing effect of anti-luciferase siRNA” value in data set [4] is given as “greater”. Besides, the “uptake of fluorescently-labeled siRNA (fluorescence photographs)” value in data set [5] was “much greater”.
With `N.N.[Cl][Pt][Cl]` [cisplatin], the IC50 in data set [3] (cisplatin alone, read-out: IC50 of cisplatin) was around 12 µM; in data set [3] (with lipids 1-3 (10 μM), read-out: IC50 of cisplatin after treatment with lipids 1-3), 3.5 µM.
On to “N,N-di-myristoyl-N-methyl-N-2[N′—(N^6-guanidino-L-lysinyl)]aminoethyl ammonium chloride [lipid 1]”, for which, in data set [6], the concentration for a half-maximal effect (EC50) is around 16 µM. Besides, in data set [2], the “apoptosis rate (flow cytometry with PI staining)” value is listed as 10.4±3.0%. In data set [7], the “transfection efficiency (luciferase activity, RLU per μg protein)” value was “comparable to that of DOTAP and Lipofectamine 2000”.
For “N,N-dimyristoyl-N-methyl-N-2[N′—(N2, N6-di-guanidino-L-lysinyl)]aminoethyl ammonium chloride [lipid 3]”, the order of cytotoxicity result in data set [6] (20 μM concentration of the corresponding lipids) is “lipid 1>lipid 3>lipid 2>DOTAP”. Moreover, the “transfection efficiency (luciferase activity, RLU per μg protein)” value in data set [7] is “comparable to that of DOTAP and Lipofectamine 2000”.

(Values after patent US8389768B2, “Methods and compositions comprising novel cationic lipids” (The University of North Carolina at Chapel Hill, priority 2008, dated 2013).)
